US20160038490A1, “COMPOSITIONS AND METHODS FOR TREATING DYSPROLIFERATIVE DISEASES” (ANGION BIOMEDICA CORP., priority 2012, published 2016)
pEC50: −log10 of the molar value. Where two headings read alike, the source gives them in different places.

Assays:
SK-BR-3 cells [1] = test: ATRA metabolism in breast cancer cells; assay type: cell-based; details: 2×10^6 SK-BR-3 cells treated with 100 nM ATRA, no CYP26 inhibitor
Protocol: To directly test whether ATRA induces its own metabolism, we treated 2×10^6 SK-BR-3 cells with 100 nM ATRA and determined the ATRA concentration after 24 hours. Significant metabolism of ATRA was found (FIG. 4), with the ATRA concentration dropping to 6 nM after 24 hrs.

SK-BR-3 cells [2] = test: Apoptosis assay (Caspase 3/7 assay); assay type: cell-based
Text: (§1) This provides a strong rationale for the simultaneous targeting of both signaling pathways in breast cancer patients.

SK-BR-3 cells [3] = test: Cell proliferation, Cell Titer Glo, checkerboard design; assay type: cell-based; details: for pEC50: Homo sapiens
Protocol: The effect of all-trans retinoic acid (ATRA), a CYP26 inhibitor and their combination was studied using two HER2+ RARA+ breast cancer cell lines: AU565 and SK-BR-3. Cells were plated in a 96-well plate and treated with compounds in a “checkerboard” design. After 7 days the cell proliferation was determined using the Cell Titer Glo reagent (Promega).
as §1

[4] = test system: SK-BR-3 breast cancer cells; test: Breast cancer xenograft study; details: SK-BR-3 xenograft, immuno-compromised mice; CYP26 inhibitor 10 mg/kg po qd×5, Lapatinib 100 mg/kg po qd×5; compared to vehicle
Protocol: Once palpable tumors were established in immuno-compromised mice, animals were randomized to four treatment groups: (1) Vehicle, (2) CYP26 inhibitor (10 mg/kg, po, qd×5), (3) the EGFR/HER2 inhibitor Lapatinib (100 mg/kg, po, qd×5) or (4) the combination of the two (10 mg/kg CYP26 inhibitor and 100 mg/kg Lapatinib).

| SMILES | ATRA concentration after 24 hours (SK-BR-3 cells [1]) [nM] | effect on Caspase 3/7 activity (SK-BR-3 cells [2]; SK-BR-3, synergy analyzed with Bliss additivity model) | pEC50 (SK-BR-3 cells [3]; 168 h, SK-BR-3, 7 days, ATRA alone, estimated, read-out: EC50, inhibition of cell growth) | effect on cell growth (SK-BR-3 cells [3]; SK-BR-3, lapatinib/ATRA experiment) | tumor progression / tumor growth inhibition [4] | induction of Caspase 3/7 activity (SK-BR-3 cells [2]; SK-BR-3, 24 hours incubation, absence of ATRA) [fold] | pEC50 (SK-BR-3 cells [3]; SK-BR-3, lapatinib alone, read-out: EC50, inhibition of cell growth in the absence of ATRA) |
| --- | --- | --- | --- | --- | --- | --- | --- |
| CC1=C(/C=C/C(C)=C/C=C/C(C)=C/C(=O)O)C(C)(C)CCC1 [ATRA, all-trans retinoic acid] | 6 | small effect | ~7.40 | inhibited breast cancer cell growth |  |  |  |
| CS(=O)(=O)CCNCc1ccc(-c2ccc3ncnc(Nc4ccc(OCc5cccc(F)c5)c(Cl)c4)c3c2)o1 [lapatinib] |  |  |  |  | Markedly reduced tumor progression | ~2 | 7.19 |
